{
  "source": "patent US10273240B2",
  "about": "“Cortistatin analogues, syntheses, and uses thereof” (President and Fellows of Harvard College, priority 2015, dated 2019)",
  "key": {"[1]": {"tested_on": "STAT1 S727 phosphorylation", "assay": "IFN-γ-stimulated STAT1 S727 phosphorylation immunoblot", "format": "cell-based, human", "conditions": "MOLM-14 cells", "procedure": "Kinase Assays. Data was quantified with ImageJ and plotted and fitted with GraphPad Prism 6.0. For STAT1 transactivation domain (TAD), 750 ng of GST-STAT1 TAD (residues 639-750) was incubated with ˜50 ng recombinant CDK8 module at 30° C. for 8 min in kinase buffer (25 mM Tris pH 8, 2 mM DTT, 100 μM cold ATP, 100 mM KCl, 10 mM MgCl2 and 2.5 μCi [γ-^32P] ATP (Perkin Elmer) per reaction). […] 12% SDS-PAGE gels were subsequently silver stained, exposed for 18 h on a Phosphor Screen and imaged (Typhoon 9400, GE Life Sciences). For pol II CTD, 400 ng of GST-CTD (murine sequence) was incubated with ˜40 ng recombinant CDK8 module, 25 ng TFIIH, or 40 ng P-TEFb at 30° C. for 60 min in kinase buffer. Kinase amounts were chosen to give similar total pol II CTD signal. 9% SDS-PAGE gels were silver stained and exposed as above. In vitro FLAG-CDK8 kinase assays used ˜40 ng kinase and 500 ng GST-CTD. For STAT1 or Smad2/3, cells were treated with compound for 1 h followed by IFN-γ or TGF-β1 for 1 h, then washed twice with cold PBS, and lysed (RIPA buffer with inhibitors R0278, P8340, P0044, P5762 Sigma-Aldrich). Standard immunoblotting was then performed with one immunoblot shown. All experiments were performed twice."}, "CDK8 module": {"target": "T1, CDK8 module (Homo sapiens, UniProt P49336)", "T1 construct": "made in house", "T1 sequence (P49336 whole entry)": "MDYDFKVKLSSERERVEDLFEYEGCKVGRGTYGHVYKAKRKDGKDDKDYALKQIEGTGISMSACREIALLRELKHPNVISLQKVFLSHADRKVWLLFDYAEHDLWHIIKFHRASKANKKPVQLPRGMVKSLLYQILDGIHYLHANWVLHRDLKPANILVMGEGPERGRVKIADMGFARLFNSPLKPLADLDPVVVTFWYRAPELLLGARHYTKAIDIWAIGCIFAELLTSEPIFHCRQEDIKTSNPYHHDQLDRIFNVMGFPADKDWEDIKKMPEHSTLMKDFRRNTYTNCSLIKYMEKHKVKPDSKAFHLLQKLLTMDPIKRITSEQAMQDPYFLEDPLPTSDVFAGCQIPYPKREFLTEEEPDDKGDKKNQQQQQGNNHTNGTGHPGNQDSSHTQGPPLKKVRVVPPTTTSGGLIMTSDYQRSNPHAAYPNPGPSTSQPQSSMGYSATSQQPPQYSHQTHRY", "T1 sequence (P24863 whole entry partner)": "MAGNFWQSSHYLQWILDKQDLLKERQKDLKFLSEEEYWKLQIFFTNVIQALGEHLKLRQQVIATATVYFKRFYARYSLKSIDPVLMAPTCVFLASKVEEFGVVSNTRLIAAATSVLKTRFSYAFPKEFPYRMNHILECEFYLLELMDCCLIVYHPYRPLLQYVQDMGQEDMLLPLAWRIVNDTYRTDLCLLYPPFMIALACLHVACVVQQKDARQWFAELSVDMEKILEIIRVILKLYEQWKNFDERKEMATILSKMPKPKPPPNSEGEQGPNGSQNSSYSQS", "T1 sequence (Q93074 whole entry partner)": "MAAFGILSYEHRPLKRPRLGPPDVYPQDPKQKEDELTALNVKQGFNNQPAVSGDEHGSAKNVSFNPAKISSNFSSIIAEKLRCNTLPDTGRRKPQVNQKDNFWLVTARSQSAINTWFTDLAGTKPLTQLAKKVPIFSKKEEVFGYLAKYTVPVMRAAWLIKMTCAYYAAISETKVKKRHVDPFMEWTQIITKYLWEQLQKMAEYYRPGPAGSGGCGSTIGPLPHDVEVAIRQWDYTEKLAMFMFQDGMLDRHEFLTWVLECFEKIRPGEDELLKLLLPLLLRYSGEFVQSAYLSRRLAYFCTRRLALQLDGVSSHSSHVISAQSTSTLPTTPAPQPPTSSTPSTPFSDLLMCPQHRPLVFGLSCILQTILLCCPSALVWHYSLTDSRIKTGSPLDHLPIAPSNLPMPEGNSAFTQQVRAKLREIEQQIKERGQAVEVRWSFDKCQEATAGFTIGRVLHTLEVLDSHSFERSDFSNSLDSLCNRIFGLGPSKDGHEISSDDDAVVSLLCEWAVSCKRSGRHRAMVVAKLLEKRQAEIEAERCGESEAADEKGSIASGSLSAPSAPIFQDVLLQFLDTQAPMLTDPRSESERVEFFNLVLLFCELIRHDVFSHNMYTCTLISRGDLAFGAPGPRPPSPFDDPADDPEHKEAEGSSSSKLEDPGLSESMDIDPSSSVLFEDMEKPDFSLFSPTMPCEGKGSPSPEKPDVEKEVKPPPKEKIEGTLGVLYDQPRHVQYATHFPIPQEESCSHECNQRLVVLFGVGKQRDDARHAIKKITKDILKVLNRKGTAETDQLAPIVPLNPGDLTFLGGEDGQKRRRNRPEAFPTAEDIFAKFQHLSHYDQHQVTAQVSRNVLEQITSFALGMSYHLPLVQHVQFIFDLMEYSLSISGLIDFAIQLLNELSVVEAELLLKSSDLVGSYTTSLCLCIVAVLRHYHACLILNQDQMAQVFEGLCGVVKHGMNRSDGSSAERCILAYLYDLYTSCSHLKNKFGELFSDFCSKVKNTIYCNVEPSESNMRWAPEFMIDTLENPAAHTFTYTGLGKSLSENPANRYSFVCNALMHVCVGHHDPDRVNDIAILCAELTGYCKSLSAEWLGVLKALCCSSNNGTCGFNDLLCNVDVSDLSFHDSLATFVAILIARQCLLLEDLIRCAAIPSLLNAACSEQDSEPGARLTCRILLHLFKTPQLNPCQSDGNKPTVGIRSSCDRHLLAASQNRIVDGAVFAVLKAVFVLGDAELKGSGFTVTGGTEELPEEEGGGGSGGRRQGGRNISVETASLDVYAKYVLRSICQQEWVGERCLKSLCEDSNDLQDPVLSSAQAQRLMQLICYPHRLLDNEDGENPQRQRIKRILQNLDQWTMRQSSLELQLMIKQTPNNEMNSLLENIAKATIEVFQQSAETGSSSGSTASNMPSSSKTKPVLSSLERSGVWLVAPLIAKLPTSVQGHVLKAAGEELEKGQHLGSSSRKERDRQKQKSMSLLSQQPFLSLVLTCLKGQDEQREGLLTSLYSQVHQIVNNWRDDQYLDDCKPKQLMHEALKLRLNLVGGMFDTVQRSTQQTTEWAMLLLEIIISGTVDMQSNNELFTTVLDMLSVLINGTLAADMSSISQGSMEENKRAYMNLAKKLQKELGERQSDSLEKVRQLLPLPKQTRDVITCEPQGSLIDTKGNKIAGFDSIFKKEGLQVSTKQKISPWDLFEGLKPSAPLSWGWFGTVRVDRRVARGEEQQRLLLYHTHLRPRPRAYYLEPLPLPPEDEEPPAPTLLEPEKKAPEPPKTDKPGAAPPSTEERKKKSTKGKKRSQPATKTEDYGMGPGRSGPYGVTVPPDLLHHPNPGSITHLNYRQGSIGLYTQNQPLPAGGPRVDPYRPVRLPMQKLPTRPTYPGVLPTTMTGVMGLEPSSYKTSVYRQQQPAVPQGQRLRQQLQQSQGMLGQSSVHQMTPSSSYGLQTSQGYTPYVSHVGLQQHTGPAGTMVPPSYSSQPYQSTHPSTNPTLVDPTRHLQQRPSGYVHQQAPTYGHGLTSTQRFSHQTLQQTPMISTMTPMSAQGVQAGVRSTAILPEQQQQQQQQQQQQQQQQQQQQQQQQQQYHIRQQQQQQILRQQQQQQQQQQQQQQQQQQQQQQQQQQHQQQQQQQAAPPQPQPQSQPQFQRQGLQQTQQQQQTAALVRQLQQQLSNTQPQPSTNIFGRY", "T1 sequence (Q9UHV7 whole entry partner)": "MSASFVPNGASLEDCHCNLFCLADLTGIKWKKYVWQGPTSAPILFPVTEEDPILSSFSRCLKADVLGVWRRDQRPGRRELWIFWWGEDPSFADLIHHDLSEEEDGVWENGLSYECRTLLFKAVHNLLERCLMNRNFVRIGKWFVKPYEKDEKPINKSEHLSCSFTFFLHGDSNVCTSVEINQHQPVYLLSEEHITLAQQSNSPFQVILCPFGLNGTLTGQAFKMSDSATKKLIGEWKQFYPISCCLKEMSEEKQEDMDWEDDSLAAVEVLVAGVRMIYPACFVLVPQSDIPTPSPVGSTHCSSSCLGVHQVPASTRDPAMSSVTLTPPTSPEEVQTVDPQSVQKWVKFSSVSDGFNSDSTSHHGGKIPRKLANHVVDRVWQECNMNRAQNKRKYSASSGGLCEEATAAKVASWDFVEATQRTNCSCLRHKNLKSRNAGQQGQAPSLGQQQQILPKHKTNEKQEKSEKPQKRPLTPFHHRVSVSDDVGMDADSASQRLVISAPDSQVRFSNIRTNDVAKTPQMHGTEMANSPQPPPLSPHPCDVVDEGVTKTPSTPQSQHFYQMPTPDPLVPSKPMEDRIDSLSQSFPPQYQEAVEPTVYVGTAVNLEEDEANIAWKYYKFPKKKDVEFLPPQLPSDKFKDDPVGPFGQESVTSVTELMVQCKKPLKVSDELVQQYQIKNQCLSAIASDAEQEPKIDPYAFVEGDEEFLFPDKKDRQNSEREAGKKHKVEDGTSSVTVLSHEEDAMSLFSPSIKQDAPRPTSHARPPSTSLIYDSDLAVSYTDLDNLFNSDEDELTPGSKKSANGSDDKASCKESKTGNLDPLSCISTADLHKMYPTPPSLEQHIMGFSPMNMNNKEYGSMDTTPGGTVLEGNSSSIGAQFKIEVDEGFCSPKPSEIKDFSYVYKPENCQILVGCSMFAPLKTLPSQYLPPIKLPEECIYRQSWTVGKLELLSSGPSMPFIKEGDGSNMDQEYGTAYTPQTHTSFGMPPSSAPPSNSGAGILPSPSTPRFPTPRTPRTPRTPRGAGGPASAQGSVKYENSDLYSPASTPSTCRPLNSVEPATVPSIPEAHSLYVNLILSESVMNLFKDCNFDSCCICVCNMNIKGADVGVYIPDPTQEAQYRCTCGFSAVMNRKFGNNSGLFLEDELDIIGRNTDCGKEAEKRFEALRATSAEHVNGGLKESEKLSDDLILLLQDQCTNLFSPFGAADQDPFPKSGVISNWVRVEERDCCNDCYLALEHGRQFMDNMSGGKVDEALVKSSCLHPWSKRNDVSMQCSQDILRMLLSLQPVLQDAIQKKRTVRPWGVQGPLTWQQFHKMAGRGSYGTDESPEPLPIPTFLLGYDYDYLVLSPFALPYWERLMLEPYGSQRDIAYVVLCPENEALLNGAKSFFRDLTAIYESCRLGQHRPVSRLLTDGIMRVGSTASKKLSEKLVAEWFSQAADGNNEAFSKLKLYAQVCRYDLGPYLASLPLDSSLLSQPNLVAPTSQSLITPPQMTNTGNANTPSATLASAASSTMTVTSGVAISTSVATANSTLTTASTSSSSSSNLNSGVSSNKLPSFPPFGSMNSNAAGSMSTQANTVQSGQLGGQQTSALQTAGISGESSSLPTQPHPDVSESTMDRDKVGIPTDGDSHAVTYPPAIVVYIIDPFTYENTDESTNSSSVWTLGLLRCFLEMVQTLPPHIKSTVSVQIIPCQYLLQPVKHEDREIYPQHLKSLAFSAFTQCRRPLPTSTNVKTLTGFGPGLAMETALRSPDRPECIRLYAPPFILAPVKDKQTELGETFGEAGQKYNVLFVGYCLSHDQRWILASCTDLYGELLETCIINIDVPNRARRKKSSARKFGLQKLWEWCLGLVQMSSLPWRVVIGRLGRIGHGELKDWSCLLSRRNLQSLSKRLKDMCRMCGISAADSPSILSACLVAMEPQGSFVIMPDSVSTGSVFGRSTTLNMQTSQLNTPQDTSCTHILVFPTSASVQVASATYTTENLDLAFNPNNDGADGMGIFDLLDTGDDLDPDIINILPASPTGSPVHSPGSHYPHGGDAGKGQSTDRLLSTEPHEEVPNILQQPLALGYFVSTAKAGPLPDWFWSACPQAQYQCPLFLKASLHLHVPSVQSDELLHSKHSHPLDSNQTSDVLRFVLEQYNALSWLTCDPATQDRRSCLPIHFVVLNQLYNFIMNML", "assay": "In vitro kinase assay, CDK8 module", "format": "biochemical", "description": "Data was quantified with ImageJ and plotted and fitted with GraphPad Prism 6.0. For STAT1 transactivation domain (TAD), 750 ng of GST-STAT1 TAD (residues 639-750) was incubated with ˜50 ng recombinant CDK8 module at 30° C. for 8 min in kinase buffer (25 mM Tris pH 8, 2 mM DTT, 100 μM cold ATP, 100 mM KCl, 10 mM MgCl2 and 2.5 μCi [γ-^32P] ATP (Perkin Elmer) per reaction). […] 12% SDS-PAGE gels were subsequently silver stained, exposed for 18 h on a Phosphor Screen and imaged (Typhoon 9400, GE Life Sciences). For pol II CTD, 400 ng of GST-CTD (murine sequence) was incubated with ˜40 ng recombinant CDK8 module, 25 ng TFIIH, or 40 ng P-TEFb at 30° C. for 60 min in kinase buffer. Kinase amounts were chosen to give similar total pol II CTD signal. 9% SDS-PAGE gels were silver stained and exposed as above. In vitro FLAG-CDK8 kinase assays used ˜40 ng kinase and 500 ng GST-CTD. […] All experiments were performed twice."}, "SET-2": {"tested_on": "SET-2", "assay": "Cell growth assay, SET-2", "format": "cell-based", "conditions": "Homo sapiens", "procedure": "(§1) Cell Culture. All media was supplemented with 100 U/mL penicillin and 100 μg/mL streptomycin. Human cancer cell lines were grown in the following media: MV4; 11, RS4; 11, K562, HEL, MOLM-14, MEG-01 in RPMI-1640, 10% FBS; SET-2 in RPMI-1640, 20% FBS; UKE-1 in RPMI-1640, 10% FBS, 10% horse serum and 1 μM hydrocortisone; SKNO-1 and TF-1 in RPMI-1640, 10% FBS, and 10 or 2 ng/mL GM-CSF, respectively; HaCaT in DMEM, 10% FBS; and HCT116 in McCoy's 5 A, 10% FBS (proliferation assay) or DMEM, 10% FBS (gene expression study). HepG2, MV4;11, RS4;11, MEG-01, TF-1, HCT116 and K562 were from ATCC. SKNO-1 was from DSMZ. HEL, UKE-1, and SET-2 were provided by Ross L. Levine and HaCaT, MV4;11-mCLP, and MOLM-14 by Van Wilson, Andrew L. Kung, and Scott A. Armstrong, respectively. MOLM-14 cells were authenticated by STR profiling and flow cytometry and all cell lines were routinely tested and found to be negative for mycoplasma."}, "MV4;11": {"tested_on": "MV4;11", "assay": "Cell growth assay, MV4;11", "format": "cell-based", "conditions": "Homo sapiens", "procedure": "(§2) All media was supplemented with 100 U/mL penicillin and 100 μg/mL streptomycin. Human cancer cell lines were grown in the following media: MV4; 11, K562, MOLM-14 in RPMI-1640, 10% FBS; SKNO-1 in RPMI-1640, 10% FBS, and 10 ng/mL GM-CSF; MV4;11 and K562 were from ATCC. SKNO-1 was from DSMZ.\nas §1"}, "RS4;11": {"tested_on": "RS4;11", "assay": "Cell growth assay, RS4;11", "format": "cell-based", "conditions": "Homo sapiens, RS4-11, 240 h; CA, after 10 days; read-out: Mean GI50 (nM), RS4;11", "procedure": "as §1"}, "UKE-1": {"tested_on": "UKE-1", "assay": "Cell growth assay, UKE-1", "format": "cell-based", "conditions": "Homo sapiens, UKE1, 240 h; CA, after 10 days", "procedure": "as §1"}, "[2]": {"target": "T2, ROCK2 in MOLM-14 cell lysate (Homo sapiens, UniProt O75116)", "T2 construct": "endogenous in cells; host or cells: MOLM-14 cell lysate", "assay": "Native kinase capture immunoblot, ROCK2", "format": "binding", "procedure": "(§3) Native Kinase Capture Immunoblot and Native Kinome-Wide Profiling. […] Experiment was performed twice with one immunoblot shown."}, "[3]": {"tested_on": "myeloid, mixed-lineage, and megakaryoblastic leukemia cell lines", "assay": "Cell growth assay, leukemia cell lines in general", "format": "cell-based", "conditions": "Homo sapiens, 240 h; 10-day treatment"}, "MEG-01": {"tested_on": "MEG-01", "assay": "Cell growth assay, MEG-01", "format": "cell-based", "conditions": "Homo sapiens, MEG-01, 240 h; CA, after 10 days; read-out: Mean GI50 (nM), MEG-01", "procedure": "as §1"}, "MOLM-14": {"tested_on": "MOLM-14", "assay": "Cell growth assay, MOLM-14", "format": "cell-based", "conditions": "Homo sapiens", "procedure": "as §2, §1"}, "[4]": {"target": "T3, GSG2 in MOLM-14 cell lysate (Homo sapiens, UniProt Q8TF76)", "T3 construct": "endogenous in cells; host or cells: MOLM-14 cell lysate", "assay": "Native kinase capture immunoblot, GSG2", "format": "binding", "procedure": "as §3"}},
  "note": "Where two headings read alike, the source gives them in different places.",
  "data": [
    {"smiles": "CN(C)[C@H]1C[C@@]23CC[C@@]4(O2)C(=CC[C@@]2(C)[C@@H](c5ccc6ccncc6c5)CC[C@H]24)C=C3[C@@H](O)[C@@H]1O", "note": "[CA, cortistatin A]", "values": [
      {"measurement": "inhibition of STAT1 S727 phosphorylation", "setting": "[1]", "result": "dose-dependently inhibited"},
      {"measurement": "inhibition of kinase activity of the CDK8 module", "setting": "CDK8 module", "result": "potently inhibited"},
      {"measurement": "GI50", "setting": "SET-2; SET-2, 240 h, CA, after 10 days, read-out: Mean GI50 (nM), SET-2", "result": 4, "unit": "nM"},
      {"measurement": "GI50", "setting": "SET-2; SET-2, Table 5, read-out: GI50 (nM), SET2", "result": 4, "unit": "nM"},
      {"measurement": "GI50", "setting": "MV4;11; MV4-11, 240 h, CA, after 10 days, read-out: Mean GI50 (nM), MV4;11", "result": 6, "unit": "nM"},
      {"measurement": "GI50", "setting": "MV4;11; MV4-11, 240 h, read-out: MV4;11 GI50 day 10", "result": 3.5, "unit": "nM"},
      {"measurement": "GI50", "setting": "MV4;11; MV4-11, Table 5, read-out: GI50 (nM), MV4;11", "result": 6, "unit": "nM"},
      {"measurement": "GI50", "setting": "RS4;11", "result": 3, "unit": "nM"},
      {"measurement": "GI50", "setting": "UKE-1", "result": 7, "unit": "nM"},
      {"measurement": "binding of ROCK2 (no binding up to)", "setting": "[2]", "result": "> 2500", "unit": "nM"},
      {"measurement": "GI50", "setting": "[3]", "result": "< 10", "unit": "nM"},
      {"measurement": "GI50", "setting": "MEG-01", "result": 9, "unit": "nM"},
      {"measurement": "GI50", "setting": "MOLM-14; MOLM-14, 240 h, CA, after 10 days, read-out: Mean GI50 (nM), MOLM-14", "result": 5, "unit": "nM"},
      {"measurement": "GI50", "setting": "MOLM-14; MOLM-14, 240 h, read-out: MOLM14 GI50 day 10", "result": 5, "unit": "nM"},
      {"measurement": "GI50", "setting": "MOLM-14; MOLM-14, Table 5, read-out: GI50 (nM), MOLM-14", "result": 5, "unit": "nM"},
      {"measurement": "binding of GSG2 (no binding at up to)", "setting": "[4]", "result": "> 2500", "unit": "nM"}
    ]}
  ]
}
